Assay results from publication PMC8990417, “^18F-labeled Dimer-Sansalvamide A Cyclodecapeptide: A Novel Diagnostic Probe to Discriminate Pancreatic Cancer from Inflammation in a Nude Mice Model” (Journal of Cancer, 2022).
pIC50: −log10 of the molar value.

Tests used:
PL45 cells = assay: MTT bioactivity assay (cell viability); assay type: cell-based, human; details: 72 hours incubation
Protocol: A 3-(4,5-Dimethylthiazol-2-yl)-2,5-Diphenyltetrazolium Bromide (MTT) (Thermo Fisher Scientifc, NY, USA) assay was used to test the bioactivity of NOTA-Dimer-San A cyclodecapeptide. PL45 cells (5000 cells) were seeded in a 96-well plate and incubated overnight. […]. Each concentration was performed in triplicate, and the drug was incubated with the cells for 72 hours. Then 10 μL of MTT (5 mg/mL) was added into each well, incubated for 4 hours until a purple precipitate was visible, and then 100 μL of a detergent reagent was added and incubated until the crystal was dissolved. Finally, the optical density (proportional to the number of live cells) was assessed with a Synergy H1 Hybrid Reader (BioTek® Instruments Inc., Winooski, Vermont, USA) at 570 nm. The cell viability (%) was calculated with GraphPad Prism 5.0 software (GraphPad Software Inc., San Diego, CA, USA).

[1] = system: pancreatic cancer PL45 cells; set-up: method as in PMID 20014866, PMID 29202402; details: read-out: IC50 (inhibition of pancreatic cancer PL45 cells); cited from earlier work
Hsp90 in PL45 cells = target: T1, Hsp90 in PL45 cells (Homo sapiens, UniProt P07900); assay: Confocal cell immunofluorescence; assay type: cell-based; details: biotin-peptide detected with Cy5 labeled avidin, anti-Hsp90α antibody co-stain
T1 construct: endogenous in cells; host or cells: PL45 cells
Protocol: PL45 cells (3-5 × 10^5) were seeded in a confocal plate with 500 µL of culture medium and incubated for 24 hours at 37°C with 5% CO2. The cell culture medium was then removed, and the cells were rinsed 3 times using phosphate buffered saline (PBS). The cells were fixed using 400 µL of 4% paraformaldehyde (pH 7.4) for 20 minutes at room temperature (RT, ~20°C). Then 500 µL of 3% Bovine Serum Albumin (BSA) (Sigma-Aldrich Corp., St. Louis, MO, USA) was added and incubated for 30 minutes at RT for blocking. The cells were washed and then 250 µL of diluted anti-hsp90α antibody (1:250) or biotine-Dimer-San A peptide was added and incubated for 24 hours at 4°C. The cells were washed, and the desired concentration of the fluorescent-dye-labeled secondary antibody (Abcam, Cambridge, UK) or Cy5 labeled avidin (Vector Laboratories, Burlingame, CA, USA) was added and protected from light at RT for 60 minutes. The supernatant was discarded, and the cells were washed, then a drop of antifade mounting medium with DAPI (Vector Laboratories, Burlingame, CA, USA) was added and incubated for 45 minutes. The target antigen was visualized by confocal fluorescence microscopy Zeiss LSM 880 Airyscan (Carl Zeiss AG, Oberkochen, Germany).

C=CCNC1=C2C[C@@H](C)C[C@H](OC)[C@H](O)[C@@H](C)/C=C(\C)[C@H](OC(N)=O)[C@@H](OC)/C=C\C=C(/C)C(=O)NC(=CC1=O)C2=O [17AAG, 17-allylaminogeldanamycin]
pIC50 (PL45 cells): 6.90

Dimer-Sansalvamide A cyclodecapeptide [Dimer-San A]
pIC50 [1]: 7.70 to 9.00
binding / co-localization with Hsp90 (confocal immunofluorescence) (Hsp90 in PL45 cells): bound to the Hsp90 target
